According to PubChem BioAssay (NCI):
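These data come from cells grown in 96-well plates and exposed to compound for 48 hours at five concentrations. At the TGI there is no net growth.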

Legend:
Test in all cases: growth of human tumour cells (NCI), 48 h
786-0 renal = system: 786-0 renal
A498 renal = system: A498 renal
A549 NSCLC = system: A549 NSCLC
ACHN renal = system: ACHN renal
CAKI-1 renal = system: CAKI-1 renal
CCRF-CEM leukemia = system: CCRF-CEM leukemia
COLO 205 colon = system: COLO 205 colon
DU-145 prostate = system: DU-145 prostate
HCT-116 colon = system: HCT-116 colon
HCT-15 colon = system: HCT-15 colon
HL-60(TB) leukemia = system: HL-60(TB) leukemia
HOP-62 NSCLC = system: HOP-62 NSCLC
HS 578T breast = system: HS 578T breast
HT29 colon = system: HT29 colon
IGROV1 ovarian = system: IGROV1 ovarian
K-562 leukemia = system: K-562 leukemia
KM12 colon = system: KM12 colon
LOX IMVI melanoma = system: LOX IMVI melanoma
M14 melanoma = system: M14 melanoma
MCF7 breast = system: MCF7 breast
MDA-MB-231 breast = system: MDA-MB-231 breast
MDA-MB-435 = system: MDA-MB-435
MDA-N = system: MDA-N
MOLT-4 leukemia = system: MOLT-4 leukemia
NCI-H226 lung = system: NCI-H226 lung
NCI-H23 lung = system: NCI-H23 lung
NCI-H460 lung = system: NCI-H460 lung
NCI-H522 lung = system: NCI-H522 lung
NCI/ADR-RES ovarian = system: NCI/ADR-RES ovarian
OVCAR-3 ovarian = system: OVCAR-3 ovarian
OVCAR-5 ovarian = system: OVCAR-5 ovarian
OVCAR-8 ovarian = system: OVCAR-8 ovarian
PC-3 prostate = system: PC-3 prostate
RPMI-8226 leukemia = system: RPMI-8226 leukemia
SF-268 CNS = system: SF-268 CNS
SF-295 CNS = system: SF-295 CNS
SF-539 CNS = system: SF-539 CNS
SK-MEL-2 melanoma = system: SK-MEL-2 melanoma
SK-MEL-5 melanoma = system: SK-MEL-5 melanoma
SK-OV-3 ovarian = system: SK-OV-3 ovarian
SN12C renal = system: SN12C renal
SNB-19 CNS = system: SNB-19 CNS
SR leukemia = system: SR leukemia
SW-620 colon = system: SW-620 colon
T-47D breast = system: T-47D breast
U251 CNS = system: U251 CNS
UACC-257 melanoma = system: UACC-257 melanoma
UACC-62 melanoma = system: UACC-62 melanoma
UO-31 renal = system: UO-31 renal
HOP-92 NSCLC = system: HOP-92 NSCLC
MALME-3M melanoma = system: MALME-3M melanoma
OVCAR-4 ovarian = system: OVCAR-4 ovarian
RXF 393 renal = system: RXF 393 renal
SK-MEL-28 melanoma = system: SK-MEL-28 melanoma
SNB-75 CNS = system: SNB-75 CNS
TK-10 renal = system: TK-10 renal

CC/C=C/C(CC)C/C(C)=C\[C@]1(CC)C[C@H](CC)[C@H](CC(=O)O)OO1 (stereo not given in full)
TGI (786-0 renal): 2.61 µM
TGI (A498 renal): 3.07 µM
TGI (A549 NSCLC): 0.281 µM
TGI (ACHN renal): 0.641 µM
TGI (CAKI-1 renal): 0.967 µM
TGI (CCRF-CEM leukemia): 0.41 µM
TGI (COLO 205 colon): 2.72 µM
TGI (DU-145 prostate): 1.64 µM
TGI (HCT-116 colon): 1.43 µM
TGI (HCT-15 colon): 1.62 µM
TGI (HL-60(TB) leukemia): 2.27 µM
TGI (HOP-62 NSCLC): 2.2 µM
TGI (HS 578T breast): 5.31 µM
TGI (HT29 colon): 1.83 µM
TGI (IGROV1 ovarian): 0.208 µM
TGI (K-562 leukemia): 1.48 µM
TGI (KM12 colon): 0.235 µM
TGI (LOX IMVI melanoma): 0.129 µM
TGI (M14 melanoma): 3.6 µM
TGI (MCF7 breast): 3.58 µM
TGI (MDA-MB-231 breast): 3.31 µM
TGI (MDA-MB-435): 2.8 µM
TGI (MDA-N): 2.71 µM
TGI (MOLT-4 leukemia): 0.494 µM
TGI (NCI-H226 lung): 4.58 µM
TGI (NCI-H23 lung): 3.05 µM
TGI (NCI-H460 lung): 0.36 µM
TGI (NCI-H522 lung): 0.331 µM
TGI (NCI/ADR-RES ovarian): 1.84 µM
TGI (OVCAR-3 ovarian): 2.48 µM
TGI (OVCAR-5 ovarian): 2.64 µM
TGI (OVCAR-8 ovarian): 3.23 µM
TGI (PC-3 prostate): 1.24 µM
TGI (RPMI-8226 leukemia): 0.395 µM
TGI (SF-268 CNS): 2.9 µM
TGI (SF-295 CNS): 1.19 µM
TGI (SF-539 CNS): 2.93 µM
TGI (SK-MEL-2 melanoma): 3.22 µM
TGI (SK-MEL-5 melanoma): 2.54 µM
TGI (SK-OV-3 ovarian): 3.3 µM
TGI (SN12C renal): 3.05 µM
TGI (SNB-19 CNS): 3.34 µM
TGI (SR leukemia): 0.287 µM
TGI (SW-620 colon): 1.42 µM
TGI (T-47D breast): 2.99 µM
TGI (U251 CNS): 1.79 µM
TGI (UACC-257 melanoma): 11.1 µM
TGI (UACC-62 melanoma): 3.07 µM
TGI (UO-31 renal): 0.0368 µM

COc1cc(O)c2c(c1)OCC1(Cc3cc(OC)c(OC)cc31)C2=O (stereo not given)
TGI (786-0 renal): > 100 µM
TGI (A498 renal): > 100 µM
TGI (A549 NSCLC): 66.8 µM
TGI (ACHN renal): > 100 µM
TGI (CAKI-1 renal): > 100 µM
TGI (CCRF-CEM leukemia): > 100 µM
TGI (COLO 205 colon): > 100 µM
TGI (DU-145 prostate): > 100 µM
TGI (HCT-116 colon): > 100 µM
TGI (HCT-15 colon): > 100 µM
TGI (HL-60(TB) leukemia): > 100 µM
TGI (HOP-62 NSCLC): > 100 µM
TGI (HOP-92 NSCLC): > 100 µM
TGI (HS 578T breast): > 100 µM
TGI (HT29 colon): > 100 µM
TGI (IGROV1 ovarian): > 100 µM
TGI (K-562 leukemia): > 100 µM
TGI (KM12 colon): > 100 µM
TGI (LOX IMVI melanoma): > 100 µM
TGI (M14 melanoma): > 100 µM
TGI (MALME-3M melanoma): > 100 µM
TGI (MCF7 breast): > 100 µM
TGI (MDA-MB-231 breast): > 100 µM
TGI (MDA-MB-435): > 100 µM
TGI (MDA-N): > 100 µM
TGI (MOLT-4 leukemia): > 100 µM
TGI (NCI-H226 lung): > 100 µM
TGI (NCI-H23 lung): > 100 µM
TGI (NCI-H460 lung): > 100 µM
TGI (NCI-H522 lung): > 100 µM
TGI (NCI/ADR-RES ovarian): > 100 µM
TGI (OVCAR-3 ovarian): > 100 µM
TGI (OVCAR-4 ovarian): > 100 µM
TGI (OVCAR-5 ovarian): > 100 µM
TGI (OVCAR-8 ovarian): > 100 µM
TGI (PC-3 prostate): > 100 µM
TGI (RPMI-8226 leukemia): > 100 µM
TGI (RXF 393 renal): > 100 µM
TGI (SF-268 CNS): > 100 µM
TGI (SF-295 CNS): > 100 µM
TGI (SF-539 CNS): > 100 µM
TGI (SK-MEL-2 melanoma): > 100 µM
TGI (SK-MEL-28 melanoma): > 100 µM
TGI (SK-MEL-5 melanoma): 26.7 µM
TGI (SK-OV-3 ovarian): > 100 µM
TGI (SN12C renal): > 100 µM
TGI (SNB-19 CNS): > 100 µM
TGI (SNB-75 CNS): > 100 µM
TGI (SR leukemia): > 100 µM
TGI (SW-620 colon): > 100 µM
TGI (T-47D breast): 57.2 µM
TGI (TK-10 renal): > 100 µM
TGI (U251 CNS): > 100 µM
TGI (UACC-257 melanoma): > 100 µM
TGI (UACC-62 melanoma): > 100 µM
TGI (UO-31 renal): > 100 µM
